Measurements taken from paper PMC2818879 (Journal of medicinal chemistry, 2010).

What was measured:
[1] = test system: reserpine-induced hypolocomotion in rats; assay: Reversal of reserpine-induced hypolocomotion in rats; settings: 10 µMol/kg s.c.; for Effect compared to reserpine control (ANOVA, Dunnett's analysis): horizontal activity, six rats
[2] = test system: 6-OHDA lesioned rats; assay: Rotational experiment with 6-OH-DA unilaterally lesioned rats; assay type: in vivo, rat
[3] = target: cloned human D2 receptor (Homo sapiens, UniProt P14416); assay: Stimulation of [35S]GTPγS binding, D2 receptor expressed in CHO cells; settings: read-out: CHO-D2 %Emax
[4] = target: cloned rat D3 receptor (Rattus norvegicus, UniProt P19020); assay: Inhibition of [3H]spiperone binding to D3 receptors expressed in HEK-293 cells; settings: ratio of Ki values

cloned human D2 receptor, sequence (P14416 whole entry): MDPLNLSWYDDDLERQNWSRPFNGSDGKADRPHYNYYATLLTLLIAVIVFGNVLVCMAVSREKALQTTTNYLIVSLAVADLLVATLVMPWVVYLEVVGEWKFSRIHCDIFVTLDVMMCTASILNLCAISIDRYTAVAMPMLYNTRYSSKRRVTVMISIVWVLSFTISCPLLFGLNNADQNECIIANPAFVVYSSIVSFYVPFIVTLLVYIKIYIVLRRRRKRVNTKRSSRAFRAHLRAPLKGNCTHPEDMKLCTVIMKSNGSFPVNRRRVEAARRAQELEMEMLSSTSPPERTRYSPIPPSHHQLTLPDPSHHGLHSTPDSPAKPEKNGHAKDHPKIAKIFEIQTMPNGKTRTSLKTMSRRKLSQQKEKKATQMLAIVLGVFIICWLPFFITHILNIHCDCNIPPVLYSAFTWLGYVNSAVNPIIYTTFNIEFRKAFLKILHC

Compound	Effect compared to reserpine control (ANOVA, Dunnett's analysis) [1]	Total rotations (contralateral) ([2]; 5 µMol/kg s.c.)	Time of peak effect (rotations) ([2]; 10 µMol/kg s.c.)	Total rotations (contralateral) ([2]; 10 µMol/kg s.c.)	Emax [3] [%]	other results
CCCN(CCN1CCN(c2ccnc3ccccc23)CC1)[C@H]1CCc2nc(N)sc2C1 [(−)-24a, (S)-N^6-Propyl-N^6-(2-(4-(quinolin-4-yl)piperazin-1-yl)ethyl)-4,5,6,7-tetrahydrobenzo[d]thiazole-2,6-diamine]	not statistically significant					Reversal of reserpine-induced hypolocomotion ([1]; reserpine 5 mg/kg s.c. 18 h before, locomotion monitored 6 h): much less active compared to 24b and 24c
CCCN(CCN1CCN(c2cccc3ncccc23)CC1)[C@H]1CCc2nc(N)sc2C1 [(−)-24b, (S)-N^6-Propyl-N^6-(2-(4-(quinolin-5-yl)piperazin-1-yl)ethyl)-4,5,6,7-tetrahydrobenzo[d]thiazole-2,6-diamine]	significantly different	2295	around 7.5 h	2648		Time of peak effect (rotations) ([2]; 5 µMol/kg s.c.): around 5 h
CCCN(CCN1CCN(c2nccc3ccccc23)CC1)[C@H]1CCc2nc(N)sc2C1 [(−)-24c, (S)-N^6-(2-(4-(Isoquinolin-1-yl)piperazin-1-yl)ethyl)-N^6-propyl-4,5,6,7-tetrahydrobenzo[d]-thiazole-2,6-diamine]	significantly different	2805	about 7 h	3688	88.4 ± 3.9	
CCCN(CCN1CCN(c2ccc(-c3ccccc3)cc2)CC1)[C@H]1CCc2nc(N)sc2C1 [Compound 2]					119 ± 6	
CCCN(CCC)CCc1cccc2c1CC(=O)N2 [Ropinirole, reference compound]	significantly different				83.9 ± 0.3	
